This passage reports Ki results from patent publication US7964624B1, “Inhibitors of serine proteases” (priority 2005, dated 2011).

Usually pKi stands for the Ki on a negative log10 scale, so that one unit is a factor of ten.

pKi: −log10 of the molar value. Some results are limits rather than exact numbers.

The target in this assay is T1, HCV NS3 protease domain (Hepatitis C virus genotype 1b, UniProt Q9WMX2).
T1 construct: The first 181 amino acids of NS3 (residues 1027-1207 of the viral polyprotein); hexa-histidine (C); made in house; host or cells: E. coli BL21/DE3 pLysS
T1 sequence (Q9WMX2 1027-1207, other chains not shown): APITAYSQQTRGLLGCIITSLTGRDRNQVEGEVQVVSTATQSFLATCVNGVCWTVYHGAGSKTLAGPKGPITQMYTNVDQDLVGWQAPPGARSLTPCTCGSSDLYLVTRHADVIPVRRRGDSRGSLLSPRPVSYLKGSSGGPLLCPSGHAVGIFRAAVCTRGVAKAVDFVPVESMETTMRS
Put plainly: biochemical. To be noted: Enzyme Assay 1 (HCV NS3 Protease Domain Peptide Cleavage Assay) activity, apparent Ki class.
Turning to `COc1ccc(C2=NO[C@@]3(C2)C[C@@H](C(=O)NC(CC2CCC2)C(=O)C(N)=O)N(C(=O)[C@@H](NC(=O)OCc2ccccc2)C(C)(C)C)C3)c(OC)c1` (stereo partly drawn) [Compound 424], the pKi is 6.30 to 7.00.

In the case of `CC(C)(C)NC(=O)N[C@H](C(=O)N1C[C@@]2(CC(c3cccc(Cl)c3)=NO2)C[C@H]1C(=O)NC(CC1CCC1)C(=O)C(=O)NC1CC1)C(C)(C)C` (stereo partly drawn) [Compound 542], the pKi was greater than 7.00.

Consider `CCC[C@H](NC(=O)[C@@H]1C[C@]2(CC(c3ccc(OC)c(Cl)c3)=NO2)CN1C(=O)[C@@H](NC(=O)CC1CCOCC1)C(C)(C)C)C(=O)C(=O)NC1CC1` [Compound 279], for which the pKi is 6.30 to 7.00.

Regarding `CCC[C@H](NC(=O)[C@@H]1C[C@]2(CC(c3cccc(Cl)c3)=NO2)CN1C(=O)CNC(=O)NCc1ccccc1)C(=O)C(=O)NC1CC1` [Compound 205], the pKi was less than 6.30.

`CCC[C@H](NC(=O)[C@@H]1C[C@]2(CC(c3ccc(OC)cc3OC)=NO2)CN1C(=O)[C@@H](NC(=O)OCc1ccccc1)C(C)(C)C)C(=O)C(=O)NC1CC1` [Compound 335]: the pKi is less than 6.30.

As for `CCC[C@H](NC(=O)[C@@H]1C[C@]2(CC(c3cccc(Cl)c3)=NO2)CN1C(=O)[C@@H](NC(=O)Nc1cccnc1)C(C)(C)C)C(=O)C(=O)NC1CC1` [Compound 576], the pKi is 6.30 to 7.00.

On to `CCC[C@H](NC(=O)[C@@H]1C[C@]2(CC(c3cccc(Cl)c3)=NO2)CN1C(=O)[C@@H](NC(=O)[C@@H]1CCC(=O)N1Cc1cccc(C)c1)C(C)(C)C)C(=O)C(=O)NC1CC1` [Compound 518], for which the pKi was greater than 7.00.

For `CCC[C@H](NC(=O)[C@@H]1C[C@]2(CC(c3cccc(Cl)c3)=NO2)CN1C(=O)[C@@H](NC(=O)NC1CCCCC1)C(C)(C)C)C(=O)C(=O)NC1CC1` [Compound 33], the pKi is greater than 7.00.

On to `CCC[C@H](NC(=O)[C@@H]1C[C@]2(CC(c3cccc(Cl)c3)=NO2)CN1C(=O)CN1C[C@H]2CCCC[C@H]2C[C@H]1C(=O)NC(C)(C)C)C(=O)C(=O)NC1CC1` [Compound 276], for which the pKi was less than 6.30.

Turning to `CCC[C@H](NC(=O)[C@@H]1C[C@]2(CC(c3ccccc3)=NO2)CN1C(=O)NCc1cc(OC)c(OC)c(OC)c1)C(=O)C(=O)NC1CC1` [Compound 367], the pKi was less than 6.30.

Turning to `CCC[C@H](NC(=O)[C@@H]1C[C@]2(CC(c3cccc(Cl)c3)=NO2)CN1C(=O)[C@@H](NC(=O)Cc1sc(C)nc1C)C(C)(C)C)C(=O)C(=O)NC1CC1` [Compound 75], the pKi is 6.30 to 7.00.

On to `CCC[C@H](NC(=O)[C@@H]1C[C@]2(CC(c3ccc(C)cc3)=NO2)CN1C(=O)[C@@H](NC(=O)O[C@H]1CCOC1)C(C)(C)C)C(=O)C(=O)NC1CC1` [Compound 385], for which the pKi is less than 6.30.

As for `CCC[C@H](NC(=O)[C@@H]1C[C@]2(CC(c3ccc(OC)c(OC4CCCC4)c3)=NO2)CN1C(=O)[C@@H](NC(=O)O[C@H]1CCOC1)C(C)(C)C)C(=O)C(=O)NC1CC1` [Compound 8], the pKi is less than 6.30.

Turning to `CCC[C@H](NC(=O)[C@@H]1C[C@]2(CC(c3cccc(F)c3)=NO2)CN1C(=O)[C@@H](NC(=O)O[C@H]1CCOC1)C(C)(C)C)C(=O)C(=O)NC1CC1` [Compound 24], the pKi is 6.30 to 7.00.

Regarding `CCC[C@H](NC(=O)[C@@H]1C[C@]2(CC(c3cc(F)cc(C(F)(F)F)c3)=NO2)CN1C(=O)[C@@H](NC(=O)O[C@H]1CCOC1)C(C)(C)C)C(=O)C(=O)NC1CC1` [Compound 498], the pKi is 6.30 to 7.00.

In the case of `CCC[C@H](NC(=O)[C@@H]1C[C@]2(CC(c3cccc(Cl)c3)=NO2)CN1C(=O)[C@@H](NC(=O)Cc1cccc(OC)c1)C(C)(C)C)C(=O)C(=O)NC1CC1` [Compound 287], the pKi was 6.30 to 7.00.

As to `CCC[C@H](NC(=O)[C@@H]1C[C@@]2(CC(c3ccccc3)=NO2)CN1C(=O)[C@@H](NC(=O)[C@@H](NC(=O)c1cnccn1)C1CCCCC1)C(C)(C)C)C(=O)C(=O)NC1CC1` [Compound 428], the pKi was 6.30 to 7.00.

With `CCC[C@H](NC(=O)[C@@H]1C[C@]2(CC(c3ccc(CC)o3)=NO2)CN1C(=O)[C@@H](NC(=O)CC1CCOCC1)C(C)(C)C)C(=O)C(=O)NC1CC1` [Compound 554], the pKi is less than 6.30.

Take `CCC[C@H](NC(=O)[C@@H]1C[C@]2(CC(c3cccc(Cl)c3)=NO2)CN1C(=O)[C@@H](NC(=O)OCCOC)C(C)(C)C)C(=O)C(=O)NC1CC1` [Compound 260]: the negative logarithm of the Ki (pKi) is 6.30 to 7.00.

On to `CCC[C@H](NC(=O)[C@@H]1C[C@]2(CC(c3cccc(Cl)c3)=NO2)CN1C(=O)[C@@H](NC(=O)C1(O)CCCC1)C(C)(C)C)C(=O)C(=O)NC1CC1` [Compound 20], for which the pKi was less than 6.30.

As for `CCC[C@H](NC(=O)[C@@H]1C[C@]2(CC(c3cccc(Cl)c3)=NO2)CN1C(=O)[C@@H](NC(=O)Cn1ccc2ncccc21)C(C)(C)C)C(=O)C(=O)NC1CC1` [Compound 506], the pKi was less than 6.30.

In the case of `CCC[C@H](NC(=O)[C@@H]1C[C@@]2(CC(c3ccc(C)c(F)c3)=NO2)CN1C(=O)[C@@H](NC(=O)O[C@H]1CCOC1)C(C)(C)C)C(=O)C(=O)NC1CC1` [Compound 423], the pKi was less than 6.30.

Regarding `CCC[C@H](NC(=O)[C@@H]1C[C@]2(CC(c3ccc(Cl)c(Cl)c3)=NO2)CN1C(=O)[C@@H](NC(=O)CC1CCCCC1)C(C)(C)C)C(=O)C(=O)NC1CC1` [Compound 323], the pKi is 6.30 to 7.00.

As for `CCC[C@H](NC(=O)[C@@H]1C[C@]2(CC(c3cccc(Cl)c3)=NO2)CN1C(=O)[C@@H](NC(=O)CCn1ncc2ccccc21)C(C)(C)C)C(=O)C(=O)NC1CC1` [Compound 528], the pKi was 6.30 to 7.00.

In the case of `CCC[C@H](NC(=O)[C@@H]1C[C@]2(CC(c3cccc(Cl)c3)=NO2)CN1C(=O)[C@@H](NC(=O)OCCc1ccccc1)C(C)(C)C)C(=O)C(=O)NC1CC1` [Compound 463], the pKi was less than 6.30.

For the molecule `CCC[C@H](NC(=O)[C@@H]1C[C@]2(CC(c3ccc(F)cc3)=NO2)CN1C(=O)[C@@H](NC(=O)[C@@H](NC(=O)c1cnccn1)C(C)(C)C)C(C)(C)C)C(=O)C(=O)NC1CC1` [Compound 417], the pKi is greater than 7.00.

Consider `CCC[C@H](NC(=O)[C@@H]1C[C@]2(CC(c3ccc(C)c(C)c3)=NO2)CN1C(=O)[C@@H](NC(=O)O[C@H]1CCOC1)C(C)(C)C)C(=O)C(=O)NC1CC1` [Compound 36], for which the pKi was 6.30 to 7.00.

For the molecule `CCC[C@H](NC(=O)[C@@H]1C[C@]2(CC(c3cccc(Cl)c3)=NO2)CN1C(=O)[C@@H](NC(=O)CCC(=O)O)C(C)(C)C)C(=O)C(=O)NC1CC1` [Compound 484], the pKi is 6.30 to 7.00.

Turning to `CCC[C@H](NC(=O)[C@@H]1C[C@]2(CC(c3ccc(F)c(C(F)(F)F)c3)=NO2)CN1C(=O)[C@@H](NC(=O)O[C@H]1CCOC1)C(C)(C)C)C(=O)C(=O)NC1CC1` [Compound 545], the pKi was 6.30 to 7.00.

As to `CCC[C@H](NC(=O)[C@@H]1C[C@]2(CC(c3ccc(C(=O)O)cc3)=NO2)CN1C(=O)[C@@H](NC(=O)O[C@H]1CCOC1)C(C)(C)C)C(=O)C(=O)NC1CC1` [Compound 543], the pKi was less than 6.30.

In the case of `CCC[C@H](NC(=O)[C@@H]1C[C@]2(CC(c3cccc(Cl)c3)=NO2)CN1C(=O)[C@@H](NC(=O)C(C)N1Cc2ccccc2C1=O)C(C)(C)C)C(=O)C(=O)NC1CC1` (stereo partly drawn) [Compound 317], the pKi is less than 6.30.

Regarding `CCC[C@H](NC(=O)[C@@H]1C[C@]2(CC(c3cccc(Cl)c3)=NO2)CN1C(=O)[C@@H](NC(=O)OCC1CCC1)C(C)(C)C)C(=O)C(=O)NC1CC1` [Compound 27], the pKi was 6.30 to 7.00.

`CCC[C@H](NC(=O)[C@@H]1C[C@]2(CC(c3cccc(Cl)c3)=NO2)CN1C(=O)[C@@H](NC(=O)OC(C)Cc1cccs1)C(C)(C)C)C(=O)C(=O)NC1CC1` (stereo partly drawn) [Compound 254]: the pKi is 6.30 to 7.00.

Take `CCC[C@H](NC(=O)[C@@H]1C[C@]2(CC(c3ccc(F)c(C)c3)=NO2)CN1C(=O)[C@@H](NC(=O)CC1CCOCC1)C(C)(C)C)C(=O)C(=O)NC1CC1` [Compound 539]: the pKi is 6.30 to 7.00.

Consider `CCC[C@H](NC(=O)[C@@H]1C[C@]2(CC(c3cccc(Cl)c3)=NO2)CN1C(=O)[C@@H](NC(=O)c1cn(C(C)C)c2ccccc2c1=O)C(C)(C)C)C(=O)C(=O)NC1CC1` [Compound 135], for which the pKi was less than 6.30.

In the case of `CCC[C@H](NC(=O)[C@@H]1C[C@]2(CC(c3cccc(Cl)c3)=NO2)CN1C(=O)[C@@H](NC(=O)CC1CCCC1)C(C)(C)C)C(=O)C(=O)NC1CC1` [Compound 72], the pKi is 6.30 to 7.00.

In the case of `CCC[C@H](NC(=O)[C@@H]1C[C@]2(CC(c3cc(F)cc(C(F)(F)F)c3)=NO2)CN1C(=O)O[C@H]1CCOC1)C(=O)C(=O)NC1CC1` [Compound 348], the pKi is less than 6.30.

Regarding `CCC[C@H](NC(=O)[C@@H]1C[C@]2(CC(CCC(=O)OC)=NO2)CN1C(=O)[C@@H](NC(=O)O[C@H]1CCOC1)C(C)(C)C)C(=O)C(=O)NC1CC1` [Compound 229], the pKi was less than 6.30.

On to `CCC[C@H](NC(=O)[C@@H]1C[C@]2(CC(c3cc(F)c(F)c(F)c3)=NO2)CN1C(=O)O[C@H]1CCOC1)C(=O)C(=O)NC1CC1` [Compound 414], for which the pKi is less than 6.30.

With `CCC[C@H](NC(=O)[C@@H]1C[C@]2(CC(c3cccc(Cl)c3)=NO2)CN1C(=O)[C@@H](NC(=O)CC1CCCCC1)C(C)(C)C)C(=O)C(N)=O` [Compound 273], the pKi was 6.30 to 7.00.

As to `CCC[C@H](NC(=O)[C@@H]1C[C@]2(CC(C)=NO2)CN1C(=O)[C@@H](NC(C)=O)C(C)(C)C)C(=O)C(=O)NC1CC1` [Compound 180], the pKi was less than 6.30.

Turning to `CCC[C@H](NC(=O)[C@@H]1C[C@]2(CC(c3cccc(Cl)c3)=NO2)CN1C(=O)[C@@H](NC(=O)OC1CCOCC1)C(C)(C)C)C(=O)C(=O)NC1CC1` [Compound 374], the pKi is 6.30 to 7.00.

As to `CCC[C@H](NC(=O)[C@@H]1C[C@]2(CC(c3cc(Cl)c(OC)cc3OC)=NO2)CN1C(=O)OCc1ccccc1Cl)C(=O)C(=O)NC1CC1` [Compound 210], the pKi is less than 6.30.

Take `CCC[C@H](NC(=O)[C@@H]1C[C@]2(CC(c3ccco3)=NO2)CN1C(=O)[C@@H](NC(=O)OC1CCOC1)C(C)(C)C)C(=O)C(=O)NC1CC1` (stereo partly drawn) [Compound 472]: the pKi is less than 6.30.

For the molecule `CCC[C@H](NC(=O)[C@@H]1C[C@]2(CC(c3ccc(OC)cc3OC)=NO2)CN1C(=O)OCC1c2ccccc2-c2ccccc21)C(=O)C(=O)NC1CC1` [Compound 371], the pKi was 6.30 to 7.00.
